“And” between values parts separate entries of the source, which are not always exact repeats. Identical values can stand only once.
Legend:
Assay type in all cases: in vivo, rat
rats [1] = experiment: Intestinal transit, activated carbon feed (method of Schulz et al); conditions: for % of increase of intestinal transit with respect to: rats
Description: (§1) Intestinal transit, colon peristalsis and the amount of stool expelled have been evaluated on rats, after the administration of different individual doses of macrogol and sodium hyaluronate and of the combination of the invention.
On the other hand, such a parameter is increased with a dose-response behavior at the same doses by adding 0.3 ml of water administered per os. as well. In fact, the percentage increase values range from +10% at the 365 mg/kg p.o. dose of PEG to +23% at the 1560 mg/kg p.o. dose. […] Interesting results, under the same experimental conditions, have been obtained with the combination of PEG and sodium hyaluronate.
The experiment has been carried out following the method of Schulz et al (NS Arch. Pharmacol. 308:255-260, 1979) by using an activated carbon feed. 1.5 ml of a 20% (w/v) activated carbon suspension in a 5% (w/v) gum arabic solution has been administered by gavage to 24 hrs starved rats with free access to water. The rats have been sacrificed 10 min after receiving the activated carbon feed and their intestine has been completely removed. The transit in the small intestine has been calculated for each rat as the ratio between the traveled distance of the activated carbon feed and the total length of the intestine itself. Data are expressed as the percentage of transit in treated rats with respect to controls that have been considered as 100. Administration of the preparations occurred 30 min before sacrificing the animal.

rats [2] = experiment: Evaluation of the amount of stool (number of expelled pellets)
Description: as §1
In Table 3 it is possible to observe an increase in the number of expelled pellets from the rat after the PEG (365-1460 mg/kg p.o. without water and […] p.o. with water) and 20-50 mg/kg hyaluronate treatment in both conditions. […] A greater number of expelled pellets have been induced by the combination of 730 mg/kg p.o. PEG with 30 and 50 mg/kg p.o. sodium hyaluronate+water. […] By administering a dose of 487 mg/kg PEG+50 mg/kg p.o. sodium hyaluronate+water, the number of expelled pellets is equal to that one that can be observed with 730 mg/kg p.o. PEG and 30 mg/kg p.o. sodium hyaluronate. […] The stool expulsion has been monitored for each rat, starting from 1 h after the administration of the preparations (Martinez e Taché, Brain Res. 893: 29-35, 2001).

rats [3] = experiment: Colon propulsion, glass bead expulsion from distal colon (Raffa et al.; Lopez)
Description: as §1
In this case all the values are significant with respect to the same treatment without water. […] Analogously to what observed in tab. […] The reduction of expulsion time results to be dose dependent, being in all the cases clearly evident and statistically significant with respect to the PEG+water dose. […] Propulsion of distal colon has been measured according to the method of Raffa et al. (Life Sci., 41: 2229-34, 1987) and of Lopez (Dig. Dis. Sci., 29:551, 1984). 30 min after the administration of the preparations, a 5 mm diameter glass bead has been inserted in the distal colon of each rat at 3 cm from the anus. The parameter taken as the reference was the time required by each rat to expel the bead. The lower the expulsion time, the highest the colon propulsion.

[4] = 20 mg/kg p.o. IALURONATE, no water
[5] = 30 mg/kg p.o. IALURONATE, no water
[6] = 50 mg/kg p.o. IALURONATE, no water

For sodium hyaluronate [IALURONATE], the “% of increase of intestinal transit with respect to” value (from here on “% of increase of intestinal transit”) (rats [1]; 20 mg/kg p.o. IALURONATE + Water 0.3 ml) was 17.0%, the “% of increase of intestinal transit” value (rats [1]; [4]) was 0% and the “% of increase of intestinal transit” value (rats [1]; 30 mg/kg p.o. IALURONATE + Water 0.3 ml) was 19.6%. For the same substance, the “% of increase of intestinal transit” value (rats [1]; [5]) was 3.8%, the “% of increase of intestinal transit” value (rats [1]; 50 mg/kg p.o. IALURONATE + Water 0.3 ml) was 20.3% and the “% of increase of intestinal transit” value (rats [1]; [6]) was 4.2%. The intestinal transit (rats [1]; sodium hyaluronate 20-50 mg/kg p.o., without simultaneous intake of water, rat) was “does not induce an increase”, the “No of pellets after 60 min” value (rats [2]; 20 mg/kg p.o. IALURONATE + Water 2 ml) was 2 and the “No of pellets after 60 min” value (rats [2]; [4]) was 0. The “No of pellets after 60 min” value (rats [2]; 30 mg/kg p.o. IALURONATE + Water 2 ml) was 2, the “No of pellets after 60 min” value (rats [2]; [5]) was 1 and the “No of pellets after 60 min” value (rats [2]; 50 mg/kg p.o. IALURONATE + Water 2 ml) was 3. For the same substance, the “No of pellets after 60 min” value (rats [2]; [6]) was 1, the “Bead Expulsion time” value (rats [3]; 20 mg/kg p.o. IALURONATE + Water 0.3 ml, rats) was 129 ± 14 s and the “Bead Expulsion time” value (rats [3]; 20 mg/kg p.o. IALURONATE, no water, rats) was 195 ± 12 s. For the same substance, the “Bead Expulsion time” value (rats [3]; 30 mg/kg p.o. IALURONATE + Water 0.3 ml, rats) was 120 ± 11 s, the “Bead Expulsion time” value (rats [3]; 30 mg/kg p.o. IALURONATE, no water, rats) was 191 ± 16 s and the “Bead Expulsion time” value (rats [3]; 50 mg/kg p.o. IALURONATE + Water 0.3 ml, rats) was 114 ± 15 s. For the same substance, the “Bead Expulsion time” value (rats [3]; 50 mg/kg p.o. IALURONATE, no water, rats) was 188 ± 21 s, the “expulsion time of the bead” value (rats [3]; sodium hyaluronate 20-50 mg/kg p.o. by gavage, no water, rats) was “does not modify” and the “expulsion time of the bead” value (rats [3]; sodium hyaluronate 20-50 mg/kg p.o., rat intakes water (0.2 ml)) was “the effect is very evident”.

polyethylene glycol [PEG] was tested, and the “% of increase of intestinal transit” value (rats [1]; 365 mg/kg p.o. PEG + Water 0.3 ml) was 10% and 10.8%, the “% of increase of intestinal transit” value (rats [1]; 365 mg/kg p.o. PEG, no water) was 9.4% and the “% of increase of intestinal transit” value (rats [1]; 487 mg/kg p.o. PEG + Water 0.3 ml) was 11.5%. The “% of increase of intestinal transit” value (rats [1]; 730 mg/kg p.o. PEG + Water 0.3 ml) was 15.3%, the “% of increase of intestinal transit” value (rats [1]; 730 mg/kg p.o. PEG, no water) was 6.7% and the “% of increase of intestinal transit” value (rats [1]; 973 mg/kg p.o. PEG + Water 0.3 ml) was 18.6%. For the same substance, the “% of increase of intestinal transit” value (rats [1]; 973 mg/kg p.o. PEG, no water) was 8.8%, the “% of increase of intestinal transit” value (rats [1]; 1460 mg/kg p.o. PEG, no water) was 8.6% and the “% of increase of intestinal transit” value (rats [1]; 1560 mg/kg p.o. PEG + Water 0.3 ml) was 23% and 23.2%. For the same substance, the intestinal motility (rats [1]; PEG by gavage, 365 to 1460 mg/kg p.o., without water, rat) was “does not induce a significant increase”, the “No of pellets after 60 min” value (rats [2]; 365 mg/kg p.o. PEG + Water 2 ml) was 0 and the “No of pellets after 60 min” value (rats [2]; 365 mg/kg p.o. PEG, no water) was 0. The “No of pellets after 60 min” value (rats [2]; 487 mg/kg p.o. PEG + Water 2 ml) was 2, the “No of pellets after 60 min” value (rats [2]; 730 mg/kg p.o. PEG + Water 2 ml) was 3 and the “No of pellets after 60 min” value (rats [2]; 730 mg/kg p.o. PEG, no water) was 0. The “No of pellets after 60 min” value (rats [2]; 973 mg/kg p.o. PEG + Water 2 ml) was 3, the “No of pellets after 60 min” value (rats [2]; 973 mg/kg p.o. PEG, no water) was 1 and the “No of pellets after 60 min” value (rats [2]; 1460 mg/kg p.o. PEG, no water) was 1. For the same substance, the “No of pellets after 60 min” value (rats [2]; 1560 mg/kg p.o. PEG + Water 2 ml) was 3, the “Bead Expulsion time” value (rats [3]; 365 mg/kg p.o. PEG + Water 0.3 ml, rats) was 153 ± 13 s and the “Bead Expulsion time” value (rats [3]; 365 mg/kg p.o. PEG, no water, rats) was 202 ± 11 s. The “Bead Expulsion time” value (rats [3]; 487 mg/kg p.o. PEG + Water 0.3 ml, rats) was 135 ± 19 s, the “Bead Expulsion time” value (rats [3]; 730 mg/kg p.o. PEG + Water 0.3 ml, rats) was 128 ± 16 s and the “Bead Expulsion time” value (rats [3]; 730 mg/kg p.o. PEG, no water, rats) was 181 ± 9 s. For the same substance, the “Bead Expulsion time” value (rats [3]; 973 mg/kg p.o. PEG + Water 0.3 ml, rats) was 116 ± 18 s, the “Bead Expulsion time” value (rats [3]; 973 mg/kg p.o. PEG, no water, rats) was 185 ± 12 s and the “Bead Expulsion time” value (rats [3]; 1460 mg/kg p.o. PEG, no water, rats) was 173 ± 15 s. The “Bead Expulsion time” value (rats [3]; 1560 mg/kg p.o. PEG + Water 0.3 ml, rats) was 93 ± 9 s, the colon propulsion activity (rats [3]; PEG 365 to 1560 mg/kg p.o. with simultaneous intake of water, vs same treatment without water, rats) was “statistically significant effect” and the colon propulsion activity (rats [3]; PEG alone, without simultaneous administration of water by gavage, rats) was “does not modify”.
